What all share (format): physicochemical
Series [1] can be described thus: Equilibrium solubility in water at room temperature. As to conditions: room temperature.
Series [2] can be described thus: Thermogravimetric analysis (TGA) weight loss / water content. The following applies: potassium salt; for hydration state: TGA. As to the method:
(§1) The crystal forms were characterized and evaluated by measuring the heats of solution or solution calorimetry, solubility data, x-ray powder diffraction patterns (XRPD), differential scanning calorimetry (DSC) and thermogravimetric analysis (TGA). Heats of solution at 30° C. were obtained in the Setaram C-80 calvet calorimeter with sample size of 7-13 mg dissolved into 5 ml of 88% DMSO 12% water for a final concentration of 1.4-2.6 mg/ml. XRPD patterns were recorded using an automated Siemens X-ray diffractometer with copper tube K alpha radiation. DSC and TGA were conducted using a Perkin Elmer series 7 instrument with a scan rate of 10° C./min over the temperature range of 30°-300° C. Utilizing these techniques the thermodynamic stability of the polymorphs of 3-[2'-(N-benzoyl)sulfonamidobiphenyl-4-yl]methyl-5,7-dimethyl-2-ethyl-3H-imidazo[4,5-b]pyridine potassium salt was determined.
Step K: Preparation of 3-[2'-(N-Benzyl)sulfonamidobiphenyl-4-yl]methyl-5,7-dimethyl-2-ethyl-3H-imidazo[4,5-b]pyridine potassium salt--(Forms I, Id and W) [drawing 13] In a 72-L four-necked flask fitted with an overhead stirrer and a reflux condenser, 3-[2'-(N-benzyl)sulfonamidobiphenyl-4-yl]methyl-5,7-dimethyl-2-ethyl-3H-imidazo[4,5-b]pyridine 1 (5.04 kg, 9.6 mol), methanol (14.5 L) and water (2.5 L) are mixed. The slurry is warmed to 62° C. under a nitrogen atmosphere and 1.94M potassium hydroxide (4.96 L, 9.61 mol) is added to the slurry at 62° C. over 1.5 hours to provide a homogeneous solution. Isopropyl acetate (13.83 L) is then added at 65° C. and the mixture is warmed to 70° C. The homogeneous solution is filtered at 70° C. to remove any particulates that are present. The filtrate is diluted with isopropyl acetate (1.3 L), methanol (0.6 L) and water (0.1 L). […] The homogeneous mixture is cooled to 52° C. over 2 hours, whereupon potassium salt seed of form "I" (140 g) is added. This mixture becomes cloudy after 30 min. The mixture is aged for 10 hours at 52° C. The white slurry is cooled to 48° C. over 1 hour and stirred for 3 hours. Finally, the crystallization mixture is cooled to 0° C. at a rate of 1° C./12.5 min. and aged for 2 hours at 0° C. […] The solid is centrifuged at 0° C. and displacement-washed with a mixture of 2:2:1 cold (0° C.) isopropyl acetate/methanol/water (5.65 L) followed by isopropyl acetate (2.3 L). The solid is semi-dried to a TG of 10-15% by spin drying. The mother liquors contain 21 wt % of 3-[2'-(N-benzyl)sulfonamidobiphenyl-4-yl]methyl-5,7-dimethyl-2-ethyl-3H-imidazo[4,5-b]pyridine potassium salt. At this stage, the crystal form of the product is form "W". The product is powdered by passing through a screen (size=12). The solid is dried by passing dry nitrogen over the solid under vacuum at 22° C. for 5 hours to yield 4.55 kg of 3-[2'-(N-benzyl)sulfonamidobiphenyl-4-yl]methyl-5,7-dimethyl-2-ethyl-3H-imidazo[4,5-b]pyridine potassium salt as the form "I" with a purity of 99.7% (assay-HClO4 titration) and TG of 7-10%. Generally, the wet cake consists of residual water, methanol and isopropyl acetate. The K-salt is considered dry when <0.05% methanol and isopropyl acetate are detected by ^1 H NMR. The product is further powdered by passing the solid through a Quadro Comil (model 197s, screen size=1143 mm round impeller) to yield 4.5 kg. The product is dried to a TG of 4.6-5.5% by the passage of dry nitrogen over the solid under vacuum at 22° C. After 10 hours, 4.24 kg (78%) of the potassium salt as the form "I" is obtained with a TG of […] (99.7 wt % by titration). The water content can be monitored by TG analysis. The TG of the potassium salt of form "I" is 4.6-5.5%. The crystal form is monitored by X-ray analysis. When the potassium salt is over dried, the crystal form converts to form "Id" (TG<4.6%). […]

Series [3] is described as follows: Heat of solution by solution calorimetry (Setaram C-80). As to conditions: DMSO, 30° C., potassium salt. As to the method: The heat of solution of different crystal forms of 3-[2'-(N-benzoyl)sulfonamidobiphenyl-4-yl]methyl-5,7-dimethyl-2-ethyl-3H-imidazo[4,5-b]pyridine potassium salt were studied at 30° C. The heat of solution is a measure of the crystal lattice energy. […] Heats of solution had to be conducted in a solvent which dissolved the samples quickly without conversion to another polymorph. This really limited solvents which could be used. Dimethylsulfoxide was chosen for this reason. The heats of solution therefore have contributions from the lattice energy of the solid as well as heat of dilution of lattice water in dimethylsulfoxide. The calorimeter therefore produces a complex signal that has an exothermic contribution from the water and an additional contribution from the energy required to dissolve the crystal. […] Additional heats of solution were determined in a mixed solvent system of 88% dimethylsulfoxide and 12% water. This system was used to minimize the contribution of moisture to the heat of solution.
as §1, with “C.” for “C. Utilizing these techniques the thermodynamic stability of the polymorphs of 3-[2'-(N-benzoyl)sulfonamidobiphenyl-4-yl]methyl-5,7-dimethyl-2-ethyl-3H-imidazo[4,5-b]pyridine potassium salt was determined.”

Series [4] in a line: Crystal form conversion in acetonitrile, with or without water (XRPD). The following applies: overnight, room temperature, potassium salt; for crystal form after stirring/shaking in acetonitrile: no added water. The source says:
Since all of the crystal forms of 3-[2'-(N-benzoyl)sulfonamidobiphenyl-4-yl]methyl-5,7-dimethyl-2-ethyl-3H-imidazo[4,5-b]pyridine potassium salt were changed to a single crystal form "D", in water, the effect of a non-aqueous solvent was studied. 3-[2'-(N-benzoyl)sulfonamidobiphenyl-4-yl]methyl-5,7-dimethyl-2-ethyl-3H-imidazo[4,5-b]pyridine potassium salt, Forms "A", "B", "C", and "D" were stirred overnight at room temperature in acetonitrile. The remaining solids were filtered and then vacuum dried overnight at room temperature. The crystallinity of the solids was examined by XRPD spectroscopy.
All of the crystal forms were converted to a single crystal form ("D") in water, but in acetonitrile to two different crystal forms. […] To explore the role of water in the above experiments, 3-[2'-(N-benzoyl)sulfonamidobiphenyl-4-yl]methyl-5,7-dimethyl-2-ethyl-3H-imidazo[4,5-b]pyridine potassium salt, form "C" (an anhydrous crystal form) was this time suspended in acetonitrile with added water (water was 10% of the solid weight). As a control experiment Form "C" was also suspended in acetonitrile with no added water. The samples were shaken overnight at room temperature. The remaining solids were filtered and vacuum dried overnight at room temperature.

Series [5] can be described thus: Crystal form stability in water (XRPD of remaining solid). As to conditions: room temperature, potassium salt. The source says: [13) S. R. Byre. "Solid State Chemistry of Drugs." Academic Press, New York, 1982.] […] Recrystallization of any of these lots from solvents like ethanol, methanol, isopropanol, acetone, etc. gave new crystal forms different from the original forms. […] Solubility in water at room temperature was one of these techniques. The equilibrium solubility in water, at room temperature for five polymorphs (Forms "B", "C", "D", "F", and "G") were the same (Table 1). When the remaining solids were filtered, air dried or vacuum dried overnight at room temperature the XRPD patterns had changed from the initial patterns and all were exactly the same. These experiments indicate that all of the crystal forms converted in water at room temperature to a new crystalline form designated […].
The remaining form "I" solid after equilibrium solubility studies in water was removed by filtration and vacuum dried overnight at room temperature.
After the discovery of form "I", form "D" could no longer be isolated in our laboratory. TGA studies indicate that form "I" of 3-[2'-(N-benzoyl)sulfonamidobiphenyl-4-yl]methyl-5,7-dimethyl-2-ethyl-3H-imidazo[4,5-b]pyridine potassium salt is a dihydrate (FIG. 4).

We go through six compounds from patent US5693812A, “Polymorphic forms of an angiotensin II antagonist” (priority 1996, dated 1997).

Structures are written as SMILES. Entries after “also recorded” stand apart in the source; their conditions may differ. Counter-ions that a name gives are not always drawn.

Take `CCc1nc2c(C)cc(C)nc2n1Cc1ccc(-c2ccccc2S(=O)(=O)NC(=O)c2ccccc2)cc1` [Form B, 3-[2'-(N-benzoyl)sulfonamidobiphenyl-4-yl]methyl-5,7-dimethyl-2-ethyl-3H-imidazo[4,5-b]pyridine potassium salt]: the “equilibrium solubility in water, comparison of five polymorphs” value in series [1] is recorded as “the same”. Besides, in series [2] (listed as B), the “% Weight Loss (Δ 30-150° C. by TGA)” value amounted to 0.5% and the hydration state entry is “anhydrous”. The “ΔH solution DMSO at 30° C.” value in series [3] (listed as B) was 17.78 ± 0.52 J/g. Further, in series [4] (listed as B), the “crystal form after stirring/shaking in acetonitrile” value (shortened to “crystal form after stirring/shaking”) was “changed to another new form ("J")”.

Turning to `CCc1nc2c(C)cc(C)nc2n1Cc1ccc(-c2ccccc2S(=O)(=O)NC(=O)c2ccccc2)cc1` [Form F, 3-[2'-(N-benzoyl)sulfonamidobiphenyl-4-yl]methyl-5,7-dimethyl-2-ethyl-3H-imidazo[4,5-b]pyridine potassium salt], the “crystal form after suspension in water” value in series [5] (listed as F) is given as “converted to form "D"”.

For the compound `CCc1nc2c(C)cc(C)nc2n1Cc1ccc(-c2ccccc2S(=O)(=O)NC(=O)c2ccccc2)cc1` [Form C, 3-[2'-(N-benzoyl)sulfonamidobiphenyl-4-yl]methyl-5,7-dimethyl-2-ethyl-3H-imidazo[4,5-b]pyridine potassium salt], in series [2] (listed as C), the “% Weight Loss (Δ 30-150° C. by TGA)” value is reported as 0.6% and the hydration state result is “anhydrous”. For the same compound, the “ΔH solution DMSO at 30° C.” value in series [3] (listed as C) came out at 29.75 ± 0.46 J/g. Further, in series [4] (acetonitrile with added water, listed as C), the “crystal form after shaking in acetonitrile-water” value was “converted to form "I"”. The “crystal form after stirring/shaking” value in series [4] (listed as C) is recorded as “changed to another new form ("J")”.

For `CCc1nc2c(C)cc(C)nc2n1Cc1ccc(-c2ccccc2S(=O)(=O)NC(=O)c2ccccc2)cc1` [Form J, 3-[2'-(N-benzoyl)sulfonamidobiphenyl-4-yl]methyl-5,7-dimethyl-2-ethyl-3H-imidazo[4,5-b]pyridine potassium salt], the “% Weight Loss (Δ 30-150° C. by TGA)” value in series [2] (listed as J) is given as 0.7%.

For the compound `CCc1nc2c(C)cc(C)nc2n1Cc1ccc(-c2ccccc2S(=O)(=O)NC(=O)c2ccccc2)cc1` [Form G, 3-[2'-(N-benzoyl)sulfonamidobiphenyl-4-yl]methyl-5,7-dimethyl-2-ethyl-3H-imidazo[4,5-b]pyridine potassium salt], in series [2] (listed as G), the “% Weight Loss (Δ 30-150° C. by TGA)” value is listed as 0% and the hydration state result is recorded as “anhydrous”. The “ΔH solution DMSO at 30° C.” value in series [3] (listed as G) is on record as 8.51 ± 0.66 J/g. Also, the “crystal form after suspension in water” value in series [5] (listed as G) is “converted to form "D"”.

With `CCc1nc2c(C)cc(C)nc2n1Cc1ccc(-c2ccccc2S(=O)(=O)NC(=O)c2ccccc2)cc1` [Form A, 3-[2'-(N-benzoyl)sulfonamidobiphenyl-4-yl]methyl-5,7-dimethyl-2-ethyl-3H-imidazo[4,5-b]pyridine potassium salt], in series [2] (listed as A), the “% Weight Loss (Δ 30-150° C. by TGA)” value stood at 3.4% and the hydration state result was “hydrated”. In series [3] (listed as A), the “ΔH solution DMSO at 30° C.” value came out at 4.92 ± 0.47 J/g. Also, the “crystal form after stirring/shaking” value in series [4] (listed as A) was “converted to a new crystal form ("I"); also recorded: changed to form "I"”.
